For data set [1], the system named is P. aeruginosa (ATCC 15442). Kind of data set: MIC measurement (adapted CLSI M07-A11 broth dilution). Format: cell-based. As to conditions: for MIC: P. aeruginosa (ATCC 15442), MHB, overnight 37° C. How it is done: (§1) MIC measurements were performed using an adapted method described in the Clinical and Laboratory Standards Institute (CLSI) guidelines M07-A11. Compounds were serial diluted two-fold in Mueller Hinton Broth (MHB) in 96 well plates. A positive growth control and a negative growth control were also included in the well plates.
(§2) A colony suspension of S. aureus (ATCC 29213), P. aeruginosa (ATCC 15442) and C. albican was prepared by taking several colonies from a fresh agar plate and suspending them in MHB. The suspension was adjusted to 0.5 McFarland (~1 × 10^8 CFU/mL) and diluted 1:100. The inoculum was then added to wells at a final concentration of […]. Plates were incubated overnight at 37° C. The following day, MICs were determined as the lowest concentration that no growth could be visually observed.
(§3) An 80 mg/ml solution of T-EDTA was prepared by dissolving T-EDTA (99% pure, Acros Organics) in sterile distilled water. The pH of this solution was measured at 10.5, using a pH electrode. A 16 mg/ml solution of DTPA was prepared by dissolving DTPA (98%+ Acros Organics) in distilled water, and adjusting pH to 10.5 using the addition of sodium hydroxide.
(In broth dilution the organism is exposed to a series of concentrations in liquid medium.)

The subject of the next data set is S. aureus (ATCC 29213). Described as above. The settings on record: for MIC: S. aureus (ATCC 29213), MHB, overnight 37° C. The format is cell-based. How it is done:
as §1, §2, §3

Another data set deals with C. albican (ATCC 10231). The description is as above. Format: cell-based. As to conditions: MHB, overnight 37° C. How it is done: as §1, §2
Data set [2] in a line: Concentration studies: loading of complex in aqueous solution. The format is physicochemical. How it is done:
3.29 g silver nitrate was dissolved in 4.71 g demineralised water to produce a silver nitrate solution. 2.58 g copper sulphate pentahydrate was dissolved in 16.09 g demineralised water to produce a copper sulphate solution. Silver nitrate solution was added to the DPTA solution with vigorous stirring. […] Copper sulphate solution was added to the white dispersion.
2.39 g silver nitrate was dissolved in 4.61 g demineralised water to produce a silver nitrate solution. 2.08 g zinc sulphate monohydrate was dissolved in 15.92 g demineralised water to produce a zinc sulphate solution. […] Zinc sulphate solution was added to the white dispersion.
0.24 g silver nitrate (AgNO3) was dissolved in 3.26 g demineralised water to produce a silver nitrate solution. 0.66 g aluminium sulphate hexadecahydrate (Al2H32O28S3) was dissolved in 8.34 g demineralised water to produce an aluminium sulphate solution. […] Aluminium sulphate solution was added to the white dispersion.
Silver nitrate solution was formed by dissolving 0.24 g silver nitrate (AgNO3) in 3.26 g demineralised water.

The mark [3] stands for this setting: clear aqueous solution as prepared.

In brackets after ≈: the same amount, converted by molar mass.

For `O=C([O-])CN(CCN(CC(=O)[O-])CC(=O)[O-])CCN(CC(=O)[O-])CC(=O)[O-].[Ag+].[Ag+].[Al+3]` [Ag2Al(DTPA)], the values for the MIC (in data set [1]; with S. aureus (ATCC 29213); in the data set with C. albican (ATCC 10231)) were 450 µg/mL, 370 µg/mL and 530 µg/mL, respectively. The “theoretical concentration of the complex in solution” value in data set [2] (setting [3]) stood at 2.9%.
As for `O=C([O-])CN(CCN(CC(=O)[O-])CC(=O)[O-])CCN(CC(=O)[O-])CC(=O)[O-].[Ag+].[Ag+].[Bi+3]` [Ag2Bi(DTPA), Ag2Bi(DPTA)], the MIC (in general, the least concentration at which growth counts as inhibited) was 94 µg/mL in data set [1], 190 µg/mL in the data set on S. aureus (ATCC 29213) and 11 µg/mL against C. albican (ATCC 10231). Further, the “theoretical concentration of the complex in solution” value in data set [2] (setting [3]) worked out at 0.02 mol/kg. The “theoretical total solids concentration” value in data set [2] (setting [3]) was determined as 9.7%.
For the compound `O=C([O-])CN(CCN(CC(=O)[O-])CC(=O)[O-])CC(=O)[O-].[Ag+].[Ag+].[Cu+2]` [Ag2Cu(EDTA), reference compound], the MIC in data set [1] was found to be 6 µg/mL; in the data set on S. aureus (ATCC 29213) it was 98 µg/mL.
Regarding `O=C(O)CN(CCN(CC(=O)O)CC(=O)O)CCN(CC(=O)O)CC(=O)O` [DTPA, diethylenetriaminepentaacetic acid, reference compound], the MIC in data set [1] was 2000 µg/mL (≈ 5.08 mM); against S. aureus (ATCC 29213) it was 1000 µg/mL (≈ 2.54 mM). Also, the “increase in potency (MIC) compared to uncomplexed T-EDTA” value in data set [1] (P. aeruginosa, versus uncomplexed T-EDTA) is 2.5 fold; in the data set on S. aureus (ATCC 29213) (S. aureus, versus uncomplexed T-EDTA) it was 1.25 fold.
Consider Ag3Cu(DTPA) [Ag3Cu(DPTA)], for which the MIC in data set [1] stood at 1.6 µg/mL; in the data set on S. aureus (ATCC 29213) it was 6 µg/mL. The “increase in potency (MIC) versus prior art compound Ag2Cu(EDTA)” value in data set [1] (P. aeruginosa, versus Ag2Cu(EDTA)) is “approximately 4 fold”; with S. aureus (ATCC 29213) (S. aureus, versus Ag2Cu(EDTA)) it was “approximately 16 fold”. Moreover, the “total soluble solids content of the solution” value in data set [2] (clear aqueous solution of the complex as prepared) is reported as 22.5 % w/w.

The values above are taken from patent US20230312610A1, “Anti-Microbial Compositions” (5D HEALTH PROTECTION GROUP LTD, priority 2020, published 2023).
